Consider 14 molecules from patent US20250312499A1, “KISSPEPTIN RECEPTOR (KISS1R) TARGETED THERAPEUTICS AND USES THEREOF” (priority 2024, published 2025).

Square brackets hold non-standard residues; d marks the D form. Peptide text beside a SMILES is read from it. * marks the point of attachment. Gly(N-(3-F-4-Me-benzyl)) = Cc1ccc(CNCC(=O)*)cc1F; Butanoyl(4-(4-I-phenyl)) = O=C(CCCc1ccc(I)cc1)*; Butanoyl(4-(4-MePh)) = Cc1ccc(CCCC(=O)*)cc1; Api(1-amidino) = N=C(N)N1CCC(N)(C(=O)O)CC1; d2Nal = N[C@H](Cc1ccc2ccccc2c1)C(=O)O; Cha = N[C@@H](CC1CCCCC1)C(=O)O; Lauroyl = CCCCCCCCCCCC(=O)*; Octanoyl = CCCCCCCC(=O)*; Api = NC1(C(=O)O)CCNCC1; PEG2 = NCCOCCOCCC(=O)O; azaGly = NNC(=O)O; Sar = CNCC(=O)O

The target in this assay is human kisspeptin receptor (Homo sapiens (Human), UniProt Q969F8). Kind of assay: Human KISS1R binding assay (membrane competition binding). The following applies: 90 min at room temperature; competition with 0.2 nM [125I]-metastin (45-54); Flp-In T-Rex 293 kisspeptin membranes; metal complexes nonradioactive Ga, In, Lu; read-out: hKiSSR Binding Ki (90 min). The essentials: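 Radioligand competition: 0.2 nM [125I]-metastin (45-54) displaced by test ligand (usually 0–10,000 nM) over 90 min at room temperature, pH 7.4 buffer with 0.1% BSA. Receptor source is crude membrane (5–10 μg) from tetracycline-induced Flp-In T-Rex 293 cells. Bound label filtered and counted; Ki from non-linear regression.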
Sequence of human kisspeptin receptor (Q969F8 whole entry): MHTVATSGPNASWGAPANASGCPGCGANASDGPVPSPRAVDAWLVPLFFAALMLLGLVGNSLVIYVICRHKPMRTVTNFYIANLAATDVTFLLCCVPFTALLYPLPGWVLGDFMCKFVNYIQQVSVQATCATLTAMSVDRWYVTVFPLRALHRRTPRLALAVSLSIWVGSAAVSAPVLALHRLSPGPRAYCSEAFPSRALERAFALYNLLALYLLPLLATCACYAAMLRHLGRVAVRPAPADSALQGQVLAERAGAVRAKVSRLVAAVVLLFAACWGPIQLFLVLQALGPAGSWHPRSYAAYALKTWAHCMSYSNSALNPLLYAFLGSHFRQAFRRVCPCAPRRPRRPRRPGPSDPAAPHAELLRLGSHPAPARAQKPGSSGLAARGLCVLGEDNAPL

For `CNCC(=O)N1CCC(NC(=O)[C@H](CC(C)C)NC(=O)NNC(=O)[C@H](Cc2ccccc2)NC(=O)[C@@H](NC(=O)[C@H](CC(N)=O)NC(=O)[C@@H](Cc2ccc3ccccc3c2)NC(=O)[C@@H](Cc2ccc(O)cc2)NC(=O)CCCc2ccc(I)cc2)[C@@H](C)O)(C(=O)N[C@@H](Cc2ccccc2)C(N)=O)CC1` [Compound 398] ({Butanoyl(4-(4-I-phenyl))}-[dY][d2Nal]NTF[azaGly]L[Api](Sar)F-NH2), the inhibition constant (Ki) was < 10 nM.
For `CNCC(=O)N1CCC(NC(=O)[C@H](CC(C)C)NC(=O)NNC(=O)[C@H](Cc2ccccc2)NC(=O)[C@@H](NC(=O)[C@H](CC(N)=O)NC(=O)[C@@H](Cc2ccc3ccccc3c2)NC(=O)[C@@H](Cc2ccc(O)cc2)NC(=O)CCCc2ccc(I)cc2)[C@@H](C)O)(C(=O)N[C@@H](Cc2ccc(O)cc2)C(N)=O)CC1` [Compound 399] ({Butanoyl(4-(4-I-phenyl))}-[dY][d2Nal]NTF[azaGly]L[Api](Sar)Y-NH2), the inhibition constant (Ki) is < 10 nM.
For `CCCCCCCCCCCC(=O)N[C@H](Cc1ccc(O)cc1)C(=O)N[C@H](Cc1ccc2ccccc2c1)C(=O)N[C@@H](CC(N)=O)C(=O)N[C@H](C(=O)N[C@@H](Cc1ccccc1)C(=O)NNC(=O)N[C@@H](CC(C)C)C(=O)NC1(C(=O)N[C@@H](Cc2c[nH]c3ccccc23)C(N)=O)CCN(C(=O)CNC)CC1)[C@@H](C)O` [Compound 400] (Lauroyl-[dY][d2Nal]NTF[azaGly]L[Api](Sar)W-NH2), the inhibitory constant (Ki) is < 10 nM.
Regarding `CCCCCCCCCCCC(=O)N[C@H](Cc1ccc(O)cc1)C(=O)N[C@H](Cc1ccc2ccccc2c1)C(=O)N[C@@H](CC(N)=O)C(=O)N[C@H](C(=O)N[C@@H](Cc1ccccc1)C(=O)NNC(=O)N[C@@H](CC(C)C)C(=O)NC1(C(=O)N[C@@H](Cc2ccc(O)cc2)C(N)=O)CCN(C(=O)CNC)CC1)[C@@H](C)O` [Compound 401] (Lauroyl-[dY][d2Nal]NTF[azaGly]L[Api](Sar)Y-NH2), the Ki is < 10 nM.
The value for `Cc1ccc(CNCC(=O)N2CCC(NC(=O)[C@H](CC(C)C)NC(=O)NNC(=O)[C@H](Cc3ccccc3)NC(=O)[C@@H](NC(=O)[C@H](CC(N)=O)NC(=O)[C@@H](Cc3c[nH]c4ccccc34)NC(=O)[C@H](N)Cc3ccc(O)cc3)[C@@H](C)O)(C(=O)N[C@@H](Cc3c[nH]c4ccccc34)C(N)=O)CC2)cc1F` [Compound 402] (H-[dY][dW]NTF[azaGly]L[Api](Gly(N-(3-F-4-Me-benzyl)))W-NH2) was < 10 nM; that for `Cc1ccc(CCCC(=O)N[C@H](Cc2ccc(O)cc2)C(=O)N[C@H](Cc2c[nH]c3ccccc23)C(=O)N[C@@H](CC(N)=O)C(=O)N[C@H](C(=O)N[C@@H](Cc2ccccc2)C(=O)NNC(=O)N[C@@H](CC(C)C)C(=O)NC2(C(=O)N[C@@H](Cc3c[nH]c4ccccc34)C(N)=O)CCN(C(=O)CNCc3ccc(C)c(F)c3)CC2)[C@@H](C)O)cc1` [Compound 403] ({Butanoyl(4-(4-MePh))}-[dY][dW]NTF[azaGly]L[Api](Gly(N-(3-F-4-Me-benzyl)))W-NH2) was < 10 nM; that for `Cc1ccc(CNCC(=O)N2CCC(NC(=O)[C@H](CC(C)C)NC(=O)NNC(=O)[C@H](CC3CCCCC3)NC(=O)[C@@H](NC(=O)[C@H](CC(N)=O)NC(=O)[C@@H](Cc3c[nH]c4ccccc34)NC(=O)[C@H](N)Cc3ccc(O)cc3)[C@@H](C)O)(C(=O)N[C@@H](Cc3c[nH]c4ccccc34)C(N)=O)CC2)cc1F` [Compound 404] (H-[dY][dW]NT[Cha][azaGly]L[Api](Gly(N-(3-F-4-Me-benzyl)))W-NH2) was < 10 nM.
For `CCCCCCCC(=O)N[C@H](Cc1ccc(O)cc1)C(=O)N[C@H](Cc1c[nH]c2ccccc12)C(=O)N[C@@H](CC(N)=O)C(=O)N[C@H](C(=O)N[C@@H](CC1CCCCC1)C(=O)NNC(=O)N[C@@H](CC(C)C)C(=O)NC1(C(=O)N[C@@H](Cc2c[nH]c3ccccc23)C(N)=O)CCN(C(=O)CNCc2ccc(C)c(F)c2)CC1)[C@@H](C)O` [Compound 405] (Octanoyl-[dY][dW]NT[Cha][azaGly]L[Api](Gly(N-(3-F-4-Me-benzyl)))W-NH2), the Ki is < 10 nM.
As for `CNCC(=O)N1CCC(NC(=O)[C@H](CC(C)C)NC(=O)NNC(=O)[C@H](Cc2ccccc2)NC(=O)[C@@H](NC(=O)[C@H](CC(N)=O)NC(=O)[C@@H](Cc2ccc3ccccc3c2)NC(=O)[C@H](N)Cc2ccc(O)cc2)[C@@H](C)O)(C(=O)N[C@@H](Cc2ccccc2)C(N)=O)CC1` [Compound 406] (H-[dY][d2Nal]NTF[azaGly]L[Api](Sar)F-NH2), the inhibitory constant (Ki) is < 10 nM.
As to `CNCC(=O)N1CCC(NC(=O)[C@H](CC(C)C)NC(=O)NNC(=O)[C@H](Cc2ccccc2)NC(=O)[C@@H](NC(=O)[C@H](CC(N)=O)NC(=O)[C@@H](Cc2ccc3ccccc3c2)NC(=O)[C@H](N)Cc2ccc(O)cc2)[C@@H](C)O)(C(=O)N[C@@H](Cc2ccc(O)cc2)C(N)=O)CC1` [Compound 407] (H-[dY][d2Nal]NTF[azaGly]L[Api](Sar)Y-NH2), the inhibitory constant (Ki) is < 10 nM.
In the case of `CNCC(=O)N1CCC(NC(=O)[C@H](CC(C)C)NC(=O)NNC(=O)[C@H](Cc2ccccc2)NC(=O)[C@@H](NC(=O)[C@H](CC(N)=O)NC(=O)[C@@H](Cc2ccc3ccccc3c2)NC(=O)[C@H](N)Cc2ccc(O)cc2)[C@@H](C)O)(C(=O)N[C@@H](Cc2c[nH]c3ccccc23)C(N)=O)CC1` [Compound 408] (H-[dY][d2Nal]NTF[azaGly]L[Api](Sar)W-NH2), the Ki was < 10 nM.
With `CC(C)C[C@H](NC(=O)NNC(=O)[C@H](Cc1ccccc1)NC(=O)[C@@H](NC(=O)[C@H](CC(N)=O)NC(=O)[C@@H](Cc1ccc2ccccc2c1)NC(=O)[C@H](N)Cc1ccc(O)cc1)[C@@H](C)O)C(=O)NC1(C(=O)N[C@@H](Cc2ccccc2)C(N)=O)CCN(C(=N)N)CC1` [Compound 409] (H-[dY][d2Nal]NTF[azaGly]L[Api(1-amidino)]F-NH2), the inhibition constant (Ki) was < 10 nM.
The value for `CC(C)C[C@H](NC(=O)NNC(=O)[C@H](Cc1ccccc1)NC(=O)[C@@H](NC(=O)[C@H](CC(N)=O)NC(=O)[C@@H](Cc1ccc2ccccc2c1)NC(=O)[C@@H](Cc1ccc(O)cc1)NC(=O)CCOCCOCCN)[C@@H](C)O)C(=O)NC1(C(=O)N[C@@H](Cc2c[nH]c3ccccc23)C(N)=O)CCN(C(=N)N)CC1` [Compound 410] (H-[PEG2][dY][d2Nal]NTF[azaGly]L[Api(1-amidino)]W-NH2) was < 10 nM; that for `CC(C)C[C@H](NC(=O)NNC(=O)[C@H](Cc1ccccc1)NC(=O)[C@@H](NC(=O)[C@H](CC(N)=O)NC(=O)[C@@H](Cc1ccc2ccccc2c1)NC(=O)[C@H](N)Cc1ccc(O)cc1)[C@@H](C)O)C(=O)NC1(C(=O)N[C@@H](Cc2c[nH]c3ccccc23)C(N)=O)CCN(C(=N)N)CC1` [Compound 411] (H-[dY][d2Nal]NTF[azaGly]L[Api(1-amidino)]W-NH2) was < 10 nM.
